Data on 98 compounds can be found in ChEMBL document CHEMBL3988442, “University of Dundee, Small-Polar-MMV Screening Library” (2021).

The term IC50 denotes the concentration that gives 50% inhibition. A low value points to higher potency. The term pIC50 denotes the negative decadic logarithm of the IC50, by convention in mol/L. Read a low pIC50 as a high IC50.

The experiment in a line: In vitro enzyme assay to detect hydrolysis of chlorophenol red-beta-D-[…] directly proportional to the number of Toxoplasma stably expressing beta-galactosidase. The settings on record: for IC50: Toxoplasma gondii. The format is functional, organism-based, Toxoplasma gondii.

“And” between values parts separate entries of the source, which are not always exact repeats. Equal values may be shown once. Bounds are passed on as bounds.

Compound `COc1ccc(C2=NOC(C(=O)N3CCCc4ccccc43)C2)cc1` (configuration not stated) had a concentration for half-maximal inhibition (IC50) of 27.9 µM.
`COC(=O)c1cnc2c(c(C)nn2C)c1OC`: the IC50 was more than 50.1 µM.
Same read-out and setting: the same measure for `NC(=O)C(Cc1ccccc1)NS(=O)(=O)Cc1ccccc1Cl` (configuration not stated): more than 50.1 µM; for `CCOCCNC(=O)c1cccnc1Sc1cc(OC)ccc1OC`: more than 50.1 µM.
The same measure, in the same setting: the same measure for `Cc1c(-c2ccccc2)nc2c(c(C)c(C)n2CCN(C)C)c1N`: 15.6 µM; for `COCC(=O)NCc1nn(CCN2CCCC2)c(=O)c2ccccc12`: 26.7 µM.
The compound `O=C(NCCn1cnc(C2CCCC2)cc1=O)NCc1cccs1` showed an IC50 of 7.44 µM.
For `CCN1CC2(CC1=O)CN(Cc1ccoc1)CCN(C(=O)C(C)C)C2` (configuration not stated), the IC50 was more than 50.1 µM.
The same measure, in the same setting: as for `CC(=O)N1CC[C@@]2(C(=O)Nc3ccccc3)CCN(S(C)(=O)=O)CC[C@@H]12`, the figure is more than 50.1 µM.
`O=C(C[C@@H]1COC[C@H]2CN(Cc3ccncc3)C[C@@H]12)N1CCCC1` showed a concentration for half-maximal inhibition (IC50) of more than 50.1 µM.
In turn, `CC(C)NC(=O)C1CN(C(=O)CCc2ccccc2)CC12CCOCC2` (configuration not stated) showed a 50% inhibitory concentration (IC50) of more than 50.1 µM.
The same measure, in the same setting: the same measure for `Cc1cc(CN2CCC3(CC2)COC(COc2ccccn2)C3)no1` (configuration not stated): more than 50.1 µM; for `Cc1ccc(CN2CCCn3c(nc(Cn4ccnc4)cc3=O)C2)o1`: more than 50.1 µM.
Consider `O=C([C@@H]1CCO[C@@H]2CCN(CC3CC3)C[C@H]21)N1CCCCO1`, for which the IC50 is more than 50.1 µM.
Still for that read-out and setting: the same measure for `COc1ccc(-n2nnc(C(=O)O)c2-c2ccccn2)cc1`: 24.8 µM; for `Cc1c(C)n(Cc2ccccn2)c2nc3c(c(N)c12)CCCCCC3`: 6.75 µM; for `CS(=O)(=O)Nc1nn(Cc2ccc(F)cc2)cc1Br`: more than 50.1 µM.
On the same count and under the same terms, the same measure for `Cc1cccc(Cn2cc(Br)c(NS(C)(=O)=O)n2)c1`: more than 50.1 µM.
`Cc1nc(N2CCN(C(=O)c3ccco3)CC2)c2c(n1)c(C)nn2C`: the pIC50 was determined as 4.358 and the concentration for half-maximal inhibition (IC50) was more than 50.1 µM.
In the same order, the values of `Cc1c(-c2cc(C(F)(F)F)nc(N3CCC(N)CC3)n2)cnn1C` are 5.176 and 4.18 µM.
In the same order, the values of `CCn1c(NCc2ccccc2)nc2c(C)nn(C)c2c1=O` are 4.457 and 22.7 µM.
`COc1cc2cc(C(=O)NCC(=O)O)n(C)c2c(OC)c1OC` showed a concentration for half-maximal inhibition (IC50) of more than 50.1 µM.
On to `CCC1=NC(SCC(=O)c2ccccc2)c2cc(CC)sc2N1` (configuration not stated), for which the IC50 is 14.9 µM.
Same read-out and setting: as for `CCC1=NC(SCC(=O)c2ccc(C)cc2)c2cc(CC)sc2N1` (configuration not stated), the figure is more than 50.1 µM; as for `CCC1=NC(SCC(=O)c2ccc(OC)cc2)c2cc(CC)sc2N1` (configuration not stated), 37.7 µM.
On the same count and under the same terms, the same measure for `Cc1c(S(=O)(=O)NC2CC2)cc2c(C)cc(=O)n3c2c1CCC3`: 48.5 µM; for `Cc1c(S(=O)(=O)N2CCOCC2)cc2c(C)cc(=O)n3c2c1CCC3`: more than 50.1 µM; for `CN(C)c1ncc2c(n1)CN(C1CCSCC1)C2=O`: more than 50.1 µM.
`Cc1nn(C)c(C)c1CNC(=O)c1cc(NC(=O)C2CC2)n(C)n1` had an IC50 of more than 50.1 µM.
`CNc1ncc2c(n1)CN(c1cccc(OC)c1)C2=O` gave an IC50 of more than 50.1 µM.
Consider `CCNc1ncc2c(n1)CN(c1cccc(OC)c1)C2=O`, for which the IC50 is more than 50.1 µM.
Regarding `CCNc1ncc2c(n1)CN(c1ccc(C)c(C)c1)C2=O`, the IC50 is more than 50.1 µM.
`CCNc1ncc2c(n1)CN(c1ccc(OC(F)(F)F)cc1)C2=O` gave an IC50 of more than 50.1 µM.
The compound `CCNc1ncc2c(n1)CN(c1ccc(Cl)cc1)C2=O` had an IC50 of more than 50.1 µM.
`CCc1nc(Nc2cccc(C(=O)NC)c2)c2c(n1)c(C)nn2CC`: the IC50 was more than 50.1 µM.
As to `CCc1nc(Nc2ccc(C(=O)NC)cc2)c2c(n1)c(C)nn2CC`, the pIC50 is less than 4.3 and the IC50 was 37.2 µM.
Consider `CCCc1nc(NCCOC)c2c(n1)c(C)nn2CC`, for which the IC50 was more than 50.1 µM.
The same measure, in the same setting: as for `CCCc1nc(NCCCOC)c2c(n1)c(C)nn2CC`, the figure is 34 µM; as for `CCn1nc(C)c2nc(C(C)C)nc(NCC(C)O)c21` (configuration not stated), more than 50.1 µM.
The same measure, in the same setting: the same measure for `CCCc1nc(NCCCOCC)c2c(n1)c(C)nn2CC`: more than 50.1 µM; for `CCCc1nc(NCCCn2ccnc2)c2c(n1)c(C)nn2CC`: more than 50.1 µM.
In the case of `Cc1nn(C)c2c(N(C)Cc3ccco3)nc(C3CC3)nc12`, the IC50 is 11.8 µM.
Still for that read-out and setting: the same measure for `CCn1nc(C)c2nc(C(C)C)nc(NCCCn3cccn3)c21`: 35.2 µM.
Compound `CCn1nc(C)c2nc(C(C)C)nc(NCCc3ccc(O)cc3)c21` had a negative-log IC50 (pIC50) of 4.521 and a half-inhibitory concentration (IC50) of 22.2 µM.
For the compound `CCn1nc(C)c2nc(C(C)C)nc(NCCCn3ccnc3)c21`, the IC50 is more than 50.1 µM.
Still for that read-out and setting: as for `CCN(CC)CCNc1nc(C(C)C)nc2c(C)nn(CC)c12`, the figure is more than 50.1 µM; as for `CCn1nc(C)c2nc(C(C)C)nc(NC)c21`, more than 50.1 µM.
In turn, `CC(C)n1cc(S(=O)(=O)N2CCCCCC2)cn1` showed an IC50 of more than 50.1 µM.
The compound `Cc1cc(C(=O)N(C)Cc2cccs2)nc(N2CCCCC2)n1` showed an IC50 of more than 50.1 µM.
`c1cnc(-c2nn3c(CN4CCCCC4)nnc3s2)cn1` gave an IC50 of more than 50.1 µM.
On to `CCn1cc(NC(=O)c2cc(C)nc(N3CCOCC3)n2)cn1`, for which the IC50 is more than 25.1 µM.
The same measure, in the same setting: as for `c1ccc(-c2nn3c(CN4CCOCC4)nnc3s2)nc1`, the figure is more than 50.1 µM.
As to `c1cc(-c2nn3c(CN4CCOCC4)nnc3s2)ccn1`, the pIC50 is listed as less than 4.3 and 44.7 µM corresponded to half-maximal inhibition (IC50).
For the compound `O=C(c1ccc(COc2ccccc2Cl)o1)N1N=CCC1(O)C(F)(F)F` (configuration not stated), the pIC50 was determined as 5.104 and the IC50 was 6.07 µM.
The like results for `Cc1cccc(OCc2ccc(C(=O)N3N=CCC3(O)C(F)(F)F)o2)c1` (configuration not stated) were, in that order, 5.353 and 3.87 µM.
The like results for `O=C(c1ccc(-c2ccc(O)nc2)s1)N1CCSCC1` were, in that order, 4.349 and 36.8 µM.
`CC(=O)N1CC2(CCCN(Cc3ccc(Cl)cc3)C2)Cc2ccccc21` (configuration not stated) had a pIC50 of 4.953 and an IC50 of 10.4 µM.
Turning to `CC(C)(C)c1cn2c(n1)C(CNCc1cnn3ccccc13)CCC2` (configuration not stated), the midpoint of inhibition, the IC50, lay at 2.52 µM.
On to `CCN(CCNS(=O)(=O)N1CCOCC1)C(=O)OC(C)(C)C`, for which the IC50 is more than 50.1 µM.
On the same count and under the same terms, the same measure for `CNc1ncc(C(=O)N2CCCC(Cc3ccccc3OC)C2)s1` (configuration not stated): 45.9 µM; for `COc1ccc(C2CCCN2c2ccnc(C)c2Cl)c(OC)c1` (configuration not stated): 14 µM; for `COC(=O)c1ccc2c(c1)CCCN2S(=O)(=O)c1cn(C)c(C)n1`: 7.21 µM.
The same measure, in the same setting: as for `CC(C)c1ocnc1C(=O)Nc1cccc(Cn2ccccc2=O)c1`, the figure is more than 50.1 µM; as for `CCC(C)(CC(=O)OC)NCc1cc(C)on1` (configuration not stated), more than 50.1 µM; as for `COCc1nnc(-c2cccc(C(=O)N(C)CC(C)(C)C)c2)o1`, more than 50.1 µM.
The same measure, in the same setting: as for `O=C(CN1CCCc2cc(F)cc(F)c21)Nc1ccc(Br)cn1`, the figure is 30.4 µM; as for `O=C(Nc1ccncc1)NC1CCN(c2ccccc2OC(F)F)C1` (configuration not stated), 1.87 µM; as for `O=C(NCCN1CCOCC1)c1cc(-c2ccc(Cl)s2)[nH]n1`, 5.29 µM.
As to `CCc1cc(=O)[nH]c(-c2ccc(NCCc3ccc(O)cc3)nc2)n1`, the concentration for half-maximal inhibition (IC50) is 1.18 µM.
For `CCc1ccc(NC(=O)C(C)Nc2cccc3c2OCCO3)cc1` (configuration not stated), the pIC50 was 5.373 and 4.972.
In turn, `COc1cc2nc(NCc3scnc3C)nc(N)c2cc1OC` gave an IC50 of 15.6 µM.
`Cc1c(CC(=O)N2CCN(C(C)C)CC2)nnn1-c1ccccc1`: the IC50 is more than 50.1 µM.
Compound `COc1ccc(-c2nnc(SC(C)C(=O)NC3CCCC3)[nH]2)c(OC)c1` (configuration not stated) showed an IC50 of more than 50.1 µM.
For `O=C(CN1CCc2sccc2C1)Nc1ccnc2ccnn12`, the pIC50 is 5.251 and the IC50 was 2.81 µM.
Take `CCCNC(=O)c1cc(-c2cnc(N3CCCC3)nc2)cn1C`: the pIC50 is 4.78 and 4.438.
`OC1CCN(c2ccnc(NCCc3ccccc3Cl)n2)C1` (configuration not stated) had a pIC50 of 5.797 and an IC50 of 2.35 µM.
In the same order, the values of `CCc1cc(N2CCC(NCCc3ccccc3F)CC2)nc(C)n1` are 4.968 and 8.65 µM.
Compound `c1csc(-c2noc(C3CNC3)n2)c1` had an IC50 of 2.96 µM.
On the same count and under the same terms, as for `Cc1cc(NCCO)nc(N2CCC(Cc3ccccc3)CC2)c1C#N`, the figure is 10.7 µM; as for `CO[C@H]1CC[C@H]2[C@H]1OCCN2Cc1ccc(F)c(F)c1`, more than 50.1 µM.
`Fc1cnc(N2CCO[C@H]3CN(CC4CCCCC4)C[C@H]32)nc1` showed an IC50 of more than 50.1 µM.
The same measure, in the same setting: the same measure for `COCC(=O)N1C[C@@H](OCc2ccncc2)[C@@H]2OCCC[C@@H]21`: more than 50.1 µM; for `O=C1COC2(CCN(S(=O)(=O)C3CC3)CC2)CN1c1cccnc1`: more than 50.1 µM; for `CC(C)CC(=O)N1CC[C@H]2N(C)CC[C@@]2(C(=O)Nc2ccccc2)CC1`: more than 50.1 µM.
For the compound `Cn1cccc1C(=O)N1C[C@@H](OCc2ccncc2)[C@@H]2OCCC[C@@H]21`, the IC50 is more than 50.1 µM.
For the compound `COCC(=O)N1CCn2c(COc3cccnc3)cnc2C1C` (configuration not stated), the IC50 is more than 50.1 µM.
Still for that read-out and setting: the same measure for `Cn1cc(N2CC3(CCN(Cc4nccs4)CC3)OCC2=O)cn1`: more than 50.1 µM.
Consider `CS(=O)(=O)N1CCOCC2(CCN(c3ccccn3)C2)C1` (configuration not stated), for which the IC50 is more than 50.1 µM.
On the same count and under the same terms, the same measure for `COC[C@@H]1CCC[C@@]12CN(Cc1ccc(C)s1)CCO2`: more than 50.1 µM; for `O=C([C@@H]1CCO[C@@H]2CCN(Cc3ccc(F)cc3)C[C@H]21)N1CCCCO1`: more than 50.1 µM.
The compound `Cn1cc(CN2CCn3cc(Cn4cccn4)nc3C2)cn1` showed an IC50 of more than 50.1 µM.
Same read-out and setting: as for `O=C(N1CCOCC1)[C@@]12CCO[C@@H]1CCN(C1CCOCC1)C2`, the figure is more than 50.1 µM.
The same measure, in the same setting: as for `O=C(N1CCOCC1)[C@@]12CCO[C@@H]1CCN(C1CCC1)C2`, the figure is more than 50.1 µM.
Compound `Cc1cnc(N2CC[C@H]3[C@@H]2CCC(=O)N3c2ccccc2)nc1.O=C(O)C(F)(F)F` gave a negative-log IC50 (pIC50) of 4.34 and an IC50 of more than 50.1 µM.
With `O=C(N1CCCC1)N1C[C@H]2CCC[C@@]2(COCc2ccccn2)C1`, the IC50 was more than 50.1 µM.
In the case of `Cc1cccc(CN2CCc3nnc(CN4CCCCC4)n3CC2)n1`, the IC50 was more than 50.1 µM.
`CCN1CC2(CC1=O)CN(Cc1ccncc1)CCN(C(=O)C(C)C)C2` (configuration not stated) gave a half-maximal inhibitory concentration (IC50) of more than 50.1 µM.
With `Cn1cc(CN2C[C@@H]3COC[C@H](C(=O)Nc4cccnc4)[C@@H]3C2)cn1`, the IC50 is more than 50.1 µM.
